Source: patent publication US8748415B2 (priority 2011, dated 2014)

Tested on: recombinant NL4-3 virus (Renilla luciferase in nef, Gag P373S)
Assay: HIV cell culture assay (luciferase activity in MT-2 cells infected with NLRluc recombinant virus)
Format: cell-based
Conditions: NL43, MT-2 cells infected 4-5 days with NLRluc recombinant virus, class symbol
How it was run: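 Activity was read as luciferase output (Dual Luciferase reagents premixed with lysis solution) after 4–5 days of infection in serially diluted inhibitor. Host cells were MT-2 in 10% FBS RPMI. The reporter virus came from transfected 293T cells and was titered on MT-2.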

SMILES	EC50 [nM]
C=C(C)[C@@H]1CC[C@]2(CN(C)CCCN3CCS(=O)(=O)CC3)CC[C@]3(C)[C@H](CC[C@@H]4[C@@]5(C)CC=C(c6ccc(C(=O)O)cc6)C(C)(C)[C@@H]5CC[C@]43C)[C@@H]12 [Example 15, 4-((1R,3aS,5aR,5bR,7aR,11aS,11bR,13aR,13bR)-5a,5b,8,8,11a-pentamethyl-1-(prop-1-en-2-yl)-3a-((3-(1-dioxo-thiomorpholino)propylamino)methyl)-2,3,3a,4,5,5a,5b,6,7,7a,8,11,11a,11b,12,13,13a,13b-octadecahydro-1H-cyclopenta[a]chrysen-9-yl)benzoic acid]	< 100
C=C(C)[C@@H]1CC[C@]2(CNC(C)C)CC[C@]3(C)[C@H](CC[C@@H]4[C@@]5(C)CC=C(c6ccc(C(=O)O)cc6)C(C)(C)[C@@H]5CC[C@]43C)[C@@H]12 [Example 175, 4-((1R,3aS,5aR,5bR,7aR,11aS,11bR,13aR,13bR)-3a-((isopropylamino)methyl)-5a,5b,8,8,11a-pentamethyl-1-(prop-1-en-2-yl)-2,3,3a,4,5,5a,5b,6,7,7a,8,11,11a,11b,12,13,13a,13b-octadecahydro-1H-cyclopenta[a]chrysen-9-yl)benzoic acid]	< 100
C=C(C)[C@@H]1CC[C@]2(CNCC(C)CN3CCCC3=O)CC[C@]3(C)[C@H](CC[C@@H]4[C@@]5(C)CC=C(c6ccc(C(=O)O)cc6)C(C)(C)[C@@H]5CC[C@]43C)[C@@H]12 (stereo partly drawn) [Example 79, 4-((1R,3aS,5aR,5bR,7aR,11aS,11bR,13aR,13bR)-5a,5b,8,8,11a-pentamethyl-3a-((2-methyl-3-(2-oxopyrrolidin-1-yl)propylamino)methyl)-1-(prop-1-en-2-yl)-2,3,3a,4,5,5a,5b,6,7,7a,8,11,11a,11b,12,13,13a,13b-octadecahydro-1H-cyclopenta[a]chrysen-9-yl)benzoic acid]	< 100
C=C(C)[C@@H]1CC[C@]2(CNCC(=O)N3CCC[C@@H]3C(=O)O)CC[C@]3(C)[C@H](CC[C@@H]4[C@@]5(C)CC=C(c6ccc(C(=O)O)cc6)C(C)(C)[C@@H]5CC[C@]43C)[C@@H]12 [Example 114, (R)-1-(2-(((1R,3aS,5aR,5bR,7aR,11aS,11bR,13aR,13bR)-9-(4-carboxyphenyl)-5a,5b,8,8,11a-pentamethyl-1-(prop-1-en-2-yl)-2,3,3a,4,5,5a,5b,6,7,7a,8,11,11a,11b,12,13,13a,13b-octadecahydro-1H-cyclopenta[a]chrysen-3a-yl)methylamino)acetyl)pyrrolidine-2-carboxylic acid]	< 100
C=C(C)[C@@H]1CC[C@]2(CNC(=O)NCCCN3CCCC3=O)CC[C@]3(C)[C@H](CC[C@@H]4[C@@]5(C)CC=C(c6ccc(C(=O)O)cc6)C(C)(C)[C@@H]5CC[C@]43C)[C@@H]12 [Example 155, 4-((1R,3aS,5aR,5bR,7aR,11aS,11bR,13aR,13bR)-5a,5b,8,8,11a-pentamethyl-3a-((3-(3-(2-oxopyrrolidin-1-yl)propyl)ureido)methyl)-1-(prop-1-en-2-yl)-2,3,3a,4,5,5a,5b,6,7,7a,8,11,11a,11b,12,13,13a,13b-octadecahydro-1H-cyclopenta[a]chrysen-9-yl)benzoic acid]	< 100
C=C(C)[C@@H]1CC[C@]2(CNCCN(CCO)CCO)CC[C@]3(C)[C@H](CC[C@@H]4[C@@]5(C)CC=C(c6ccc(C(=O)O)cc6)C(C)(C)[C@@H]5CC[C@]43C)[C@@H]12 [Example 24, 4-((1R,3aS,5aR,5bR,7aR,11aS,11bR,13aR,13bR)-3a-((2-(bis(2-hydroxyethyl)amino)ethylamino)methyl)-5a,5b,8,8,11a-pentamethyl-1-(prop-1-en-2-yl)-2,3,3a,4,5,5a,5b,6,7,7a,8,11,11a,11b,12,13,13a,13b-octadecahydro-1H-cyclopenta[a]chrysen-9-yl)benzoic acid]	< 100
C=C(C)[C@@H]1CC[C@]2(CNCCN3CCN(S(C)(=O)=O)CC3)CC[C@]3(C)[C@H](CC[C@@H]4[C@@]5(C)CC=C(c6ccc(C(=O)O)cc6)C(C)(C)[C@@H]5CC[C@]43C)[C@@H]12 [Example 179, 4-((1R,3aS,5aR,5bR,7aR,11aS,11bR,13aR,13bR)-5a,5b,8,8,11a-pentamethyl-3a-((2-(4-(methylsulfonyl)piperazin-1-yl)ethylamino)methyl)-1-(prop-1-en-2-yl)-2,3,3a,4,5,5a,5b,6,7,7a,8,11,11a,11b,12,13,13a,13b-octadecahydro-1H-cyclopenta[a]chrysen-9-yl)benzoic acid]	< 100
C=C(C)[C@@H]1CC[C@]2(CNC(=O)[C@@H](N)Cc3c[nH]cn3)CC[C@]3(C)[C@H](CC[C@@H]4[C@@]5(C)CC=C(c6ccc(C(=O)O)cc6)C(C)(C)[C@@H]5CC[C@]43C)[C@@H]12 [Example 140, 4-((1R,3aS,5aR,5bR,7aR,11aS,11bR,13aR,13bR)-3a-(((S)-2-amino-3-(1H-imidazol-4-yl)propanamido)methyl)-5a,5b,8,8,11a-pentamethyl-1-(prop-1-en-2-yl)-2,3,3a,4,5,5a,5b,6,7,7a,8,11,11a,11b,12,13,13a,13b-octadecahydro-1H-cyclopenta[a]chrysen-9-yl)benzoic acid]	< 100
C=C(C)[C@@H]1CC[C@]2(CNCCN3CCOCC3)CC[C@]3(C)[C@H](CC[C@@H]4[C@@]5(C)CC=C(c6ccc(C(=O)O)cc6)C(C)(C)[C@@H]5CC[C@]43C)[C@@H]12 [Example 63, 4-((1R,3aS,5aR,5bR,7aR,11aS,11bR,13aR,13bR)-5a,5b,8,8,11a-pentamethyl-3a-((2-morpholinoethylamino)methyl)-1-(prop-1-en-2-yl)-2,3,3a,4,5,5a,5b,6,7,7a,8,11,11a,11b,12,13,13a,13b-octadecahydro-1H-cyclopenta[a]chrysen-9-yl)benzoic acid]	< 100
C=C(C)[C@@H]1CC[C@]2(CNCCCN3CCCCC3)CC[C@]3(C)[C@H](CC[C@@H]4[C@@]5(C)CC=C(c6ccc(C(=O)O)cc6)C(C)(C)[C@@H]5CC[C@]43C)[C@@H]12 [Example 72, 4-((1R,3aS,5aR,5bR,7aR,11aS,11bR,13aR,13bR)-5a,5b,8,8,11a-pentamethyl-3a-((3-(piperidin-1-yl)propylamino)methyl)-1-(prop-1-en-2-yl)-2,3,3a,4,5,5a,5b,6,7,7a,8,11,11a,11b,12,13,13a,13b-octadecahydro-1H-cyclopenta[a]chrysen-9-yl)benzoic acid]	< 100
C=C(C)[C@@H]1CC[C@]2(CN(C)C)CC[C@]3(C)[C@H](CC[C@@H]4[C@@]5(C)CC=C(c6ccc(C(=O)O)cc6)C(C)(C)[C@@H]5CC[C@]43C)[C@@H]12 [Example 83, 4-((1R,3aS,5aR,5bR,7aR,11aS,11bR,13aR,13bR)-3a-((dimethylamino)methyl)-5a,5b,8,8,11a-pentamethyl-1-(prop-1-en-2-yl)-2,3,3a,4,5,5a,5b,6,7,7a,8,11,11a,11b,12,13,13a,13b-octadecahydro-1H-cyclopenta[a]chrysen-9-yl)benzoic acid]	< 100
C=C(C)[C@@H]1CC[C@]2(CNCCC(=O)N(C)C)CC[C@]3(C)[C@H](CC[C@@H]4[C@@]5(C)CC=C(c6ccc(C(=O)O)cc6)C(C)(C)[C@@H]5CC[C@]43C)[C@@H]12 [Example 75, 4-((1R,3aS,5aR,5bR,7aR,11aS,11bR,13aR,13bR)-3a-((3-(dimethylamino)-3-oxopropylamino)methyl)-5a,5b,8,8,11a-pentamethyl-1-(prop-1-en-2-yl)-2,3,3a,4,5,5a,5b,6,7,7a,8,11,11a,11b,12,13,13a,13b-octadecahydro-1H-cyclopenta[a]chrysen-9-yl)benzoic acid]	< 100
C=C(C)[C@@H]1CC[C@]2(CNC(=O)CCC(=O)OC)CC[C@]3(C)[C@H](CC[C@@H]4[C@@]5(C)CC=C(c6ccc(C(=O)O)cc6)C(C)(C)[C@@H]5CC[C@]43C)[C@@H]12 [Example 170, 4-((1R,3aS,5aR,5bR,7aR,11aS,11bR,13aR,13bR)-3a-((4-methoxy-4-oxobutanamido)methyl)-5a,5b,8,8,11a-pentamethyl-1-(prop-1-en-2-yl)-2,3,3a,4,5,5a,5b,6,7,7a,8,11,11a,11b,12,13,13a,13b-octadecahydro-1H-cyclopenta[a]chrysen-9-yl)benzoic acid]	< 100
